Converted amounts (≈) assume the structure as drawn. Like-named read-outs stand apart in the source and are kept apart here.
Key:
S. aureus ATCC 29213 [1] = settings: cited from earlier work
S. aureus ATCC 29213 [2] = assay: MIC by broth microdilution, S. aureus ATCC 29213; assay type: cell-based; settings: S. aureus (ATCC 29213); for MIC, Antibiotic +NH2-triguan-6C / MIC, Antibiotic +NO2-triamine-2C / MIC, Antibiotic +NO2-triamine-6C: non-covalent mixture; for MIC: Staphylococcus aureus, ATCC29213, 20 h, read-out: MIC, Antibiotic Alone
Method: (§1) Methods—Determination of MICs: MICs for S. aureus, E. faecium, E. coli, P aeruginosa, A. baumannii, K. pneumoniae were determined using broth microdilution in accordance with CLSI methods (Wiegand, I.; Hilpert, K.; Hancock, R. E. W. Agar and Broth Dilution Methods to Determine the Minimal Inhibitory Concentration (MIC) of Antimicrobial Substances. Nat. Protoc. 2008, 3, 163-175). One day prior to each MIC experiment, bacterial strains were streaked for single colonies on TSA plates from frozen glycerol stocks stored at −80° C. Three to five colonies from each plate were harvested with a disposable inoculating loop and resuspended in 500 μL of PBS to create a bacterial suspension. Alternatively, a single colony of the appropriate bacterial strain was added to 4 mL TSB for overnight growth at 37° C. with 200 rpm shaking to create a stationary phase bacterial suspension. The suspension was diluted in PBS to an OD600 of 0.1 (˜[…] CFU/ml), and the OD 0.1 suspension was diluted 1:100 in Mueller Hinton broth (MHB, Difco 257530) just prior to inoculating the 96-well polypropylene treatment plate (Costar 3879). A 50 μL portion of inoculum was added to a treatment plate containing 2-fold serial dilutions of compound in MHB (50 μL of treatment/well) to lend a final total volume of 100 μL/well and a final inoculum density of ˜5×10^5 CFU/ml. The completed assay plate was sealed with Parafilm, placed in a lidded plastic tray lined with moistened paper towels, and incubated at 37° C. for approximately 20 hours. The MIC was read as the lowest treatment concentration where no bacterial growth occurred, as determined by OD600 measurements on a microplate reader. If a different plate or media type was used for a particular test, this is noted below the respective table.

E. coli ATCC 25922 [3] = assay: MIC by broth microdilution, E. coli ATCC 25922; assay type: cell-based; settings: E. coli (ATCC 25922); for MIC, Antibiotic +NH2-triguan-6C / MIC, Antibiotic +NO2-triamine-2C / MIC, Antibiotic +NO2-triamine-6C: non-covalent mixture
Method: as §1

E. coli ATCC 25922 [4] = settings: cited from earlier work
[5] = Mueller Hinton Broth, polypropylene plate
[6] = cation-adjusted MHB2 supplemented
[7] = cation-adjusted MHB2 supplemented with 50 g/L Ca2+

CC1(C)S[C@@H]2[C@H](NC(=O)[C@H](N)c3ccccc3)C(=O)N2[C@H]1C(=O)O [Ampicillin]
Literature MIC (S. aureus ATCC 29213 [1]): 1.4 µM | MIC, Antibiotic +NH2-triguan-6C (S. aureus ATCC 29213 [2]; [5]): 4 µM (≈ 1.4 µg/mL) | MIC, Antibiotic +NO2-triamine-2C (S. aureus ATCC 29213 [2]; [5]): 4 µM (≈ 1.4 µg/mL) | MIC, Antibiotic +NO2-triamine-6C (S. aureus ATCC 29213 [2]; [5]): 4 µM (≈ 1.4 µg/mL) | MIC (S. aureus ATCC 29213 [2]; [5]): 2 µM (≈ 0.699 µg/mL) | MIC, Antibiotic Alone (E. coli ATCC 25922 [3]): 16 µM (≈ 5.59 µg/mL) | MIC, Antibiotic +NH2-triguan-6C (E. coli ATCC 25922 [3]): 16 µM (≈ 5.59 µg/mL) | MIC, Antibiotic +NO2-triamine-2C (E. coli ATCC 25922 [3]): 16 µM (≈ 5.59 µg/mL) | MIC, Antibiotic +NO2-triamine-6C (E. coli ATCC 25922 [3]): 16 µM (≈ 5.59 µg/mL) | Literature MIC (E. coli ATCC 25922 [4]): 5 to 22 µM

CC[C@H]1OC(=O)[C@H](C)[C@@H](O[C@H]2C[C@@](C)(OC)[C@@H](O)[C@H](C)O2)[C@H](C)[C@@H](O[C@@H]2O[C@H](C)C[C@H](N(C)C)[C@H]2O)[C@](C)(O)C[C@@H](C)CN(C)[C@H](C)[C@@H](O)[C@]1(C)O [Azithromycin]
Literature MIC (S. aureus ATCC 29213 [1]): 0.64 to 2.5 µM | MIC, Antibiotic +NH2-triguan-6C (S. aureus ATCC 29213 [2]; [5]): 2 µM (≈ 1.5 µg/mL) | MIC, Antibiotic +NO2-triamine-2C (S. aureus ATCC 29213 [2]; [5]): 2 µM (≈ 1.5 µg/mL) | MIC, Antibiotic +NO2-triamine-6C (S. aureus ATCC 29213 [2]; [5]): 2 µM (≈ 1.5 µg/mL) | MIC (S. aureus ATCC 29213 [2]; [5]): 2 µM (≈ 1.5 µg/mL)

O=C(N[C@H](CO)[C@H](O)c1ccc([N+](=O)[O-])cc1)C(Cl)Cl [Chloramphenicol]
Literature MIC (S. aureus ATCC 29213 [1]): 6 to 50 µM | MIC, Antibiotic +NH2-triguan-6C (S. aureus ATCC 29213 [2]; [5]): 32 µM (≈ 10.3 µg/mL) | MIC, Antibiotic +NO2-triamine-2C (S. aureus ATCC 29213 [2]; [5]): 32 µM (≈ 10.3 µg/mL) | MIC, Antibiotic +NO2-triamine-6C (S. aureus ATCC 29213 [2]; [5]): 32 µM (≈ 10.3 µg/mL) | MIC (S. aureus ATCC 29213 [2]; [5]): 32 µM (≈ 10.3 µg/mL) | MIC, Antibiotic Alone (E. coli ATCC 25922 [3]): 16 µM (≈ 5.17 µg/mL) | MIC, Antibiotic +NH2-triguan-6C (E. coli ATCC 25922 [3]): 16 µM (≈ 5.17 µg/mL) | MIC, Antibiotic +NO2-triamine-2C (E. coli ATCC 25922 [3]): 16 µM (≈ 5.17 µg/mL) | MIC, Antibiotic +NO2-triamine-6C (E. coli ATCC 25922 [3]): 16 µM (≈ 5.17 µg/mL) | Literature MIC (E. coli ATCC 25922 [4]): 6 to 25 µM

O=C(O)c1cn(C2CC2)c2cc(N3CCNCC3)c(F)cc2c1=O [Ciprofloxacin]
Literature MIC (S. aureus ATCC 29213 [1]): 0.4 to 1.5 µM

CCCCCCCCCC(=O)N[C@@H](Cc1c[nH]c2ccccc12)C(=O)N[C@H](CC(N)=O)C(=O)N[C@@H](CC(=O)O)C(=O)N[C@@H]1C(=O)NCC(=O)N[C@@H](CCCN)C(=O)N[C@@H](CC(=O)O)C(=O)N[C@H](C)C(=O)N[C@@H](CC(=O)O)C(=O)NCC(=O)N[C@H](CO)C(=O)N[C@@H]([C@H](C)CC(=O)O)C(=O)N[C@@H](CC(=O)c2ccccc2N)C(=O)O[C@@H]1C [Daptomycin]
Literature MIC (S. aureus ATCC 29213 [1]): 0.077 to 0.62 µM | MIC, Antibiotic +NH2-triguan-6C (S. aureus ATCC 29213 [2]; [6]): 0.5 µM (≈ 0.81 µg/mL) | MIC, Antibiotic +NO2-triamine-2C (S. aureus ATCC 29213 [2]; [7]): 0.5 µM (≈ 0.81 µg/mL) | MIC, Antibiotic +NO2-triamine-6C (S. aureus ATCC 29213 [2]; [7]): 0.5 µM (≈ 0.81 µg/mL) | MIC (S. aureus ATCC 29213 [2]; [6]): 0.5 µM (≈ 0.81 µg/mL)

C[C@@H](O)[C@H]1C(=O)N2C(C(=O)O)=C(S[C@@H]3CN[C@H](C(=O)N(C)C)C3)[C@H](C)[C@H]12 [Meropenem]
Literature MIC (S. aureus ATCC 29213 [1]): 0.08 to 0.65 µM | MIC, Antibiotic +NH2-triguan-6C (S. aureus ATCC 29213 [2]; [5]): 0.125 µM (≈ 0.0479 µg/mL) | MIC, Antibiotic +NO2-triamine-2C (S. aureus ATCC 29213 [2]; [5]): 0.125 µM (≈ 0.0479 µg/mL) | MIC, Antibiotic +NO2-triamine-6C (S. aureus ATCC 29213 [2]; [5]): 0.125 µM (≈ 0.0479 µg/mL) | MIC (S. aureus ATCC 29213 [2]; [5]): 0.125 µM (≈ 0.0479 µg/mL)

— patent US12653892B2, “Composition and method for new therapeutic agents including guanidinium-presenting dendrimers and branched structures” (priority 2020, dated 2026)
